Columns and labels:
melanoma B16-F10 = test: Subcutaneous B16-F10 melanoma, manganese colloid with cyclophosphamide; format: in vivo, mice; conditions: 14 days after inoculation; colloid 5 mg/kg i.m. every two days; CTX 140 mg/kg i.p. day 6, 9, 12
influenza virus = tested on: influenza virus; set-up: species or system mice; conditions: mouse, in vivo
[1] = tested on: inflammatory factors IL-1β and IL-18; format: cell-based, mouse
IL-1β = test: Induction of inflammatory factor IL-1β by manganese products; format: cell-based; conditions: FIG. 2B
Method: Each of the products was tested.

[2] = 20 μg manganese i.m. in 100 μl saline
Method: The mice were randomly divided into 2 groups according to body weight, namely: intramuscular injection of MnCl2 solution group (20 μg MnCl2 dissolved in 100 μl saline), and intramuscular injection of manganese colloid group (20 μg manganese colloid suspended in 100 μl saline). 20 μg here refers to the mass of the element manganese. At different times after the injection, 0.1 g of the muscle at the injection site was taken, digested with a microwave digestion apparatus, and then the content of the element manganese was determined by ICP-MS (Thermo X SERIES II).

[3] = tested on: mouse peritoneal macrophages; format: cell-based
B16/OVA melanoma cells = test: B16/OVA melanoma subcutaneous in situ tumor model after immunization; format: in vivo, mice; conditions: 21 days after tumor inoculation; immunized three times with OVA ± adjuvant
Text: The mice were randomly divided into 4 groups according to body weight: blank control group (con), OVA control group, OVA and manganese colloid group (OVA+Mn), and OVA and aluminum adjuvant group (OVA+Al). After immunizing the mice three times according to the experimental scheme (once every 7 days), the B16/OVA melanoma cells were subcutaneously inoculated to establish an in situ tumor model. […] 21 days after tumor inoculation, the average tumor size of mice in the control group was 1906 mm^3, the average tumor size of mice in the OVA group was 925.5 mm^3, the average tumor size of mice immunized with manganese colloid was 222.9 mm^3, and the average tumor size of mice in the aluminum adjuvant group was 1946 mm^3, as shown in FIG. 14B.

B16-OVA tumor = test: B16-OVA tail vein tumor metastasis model after immunization; format: in vivo, mice; conditions: 21 days after tumor injection
Method: Mn2OHPO4 colloid and aluminum adjuvant were mixed respectively with antigen OVA to immunize mice. Immunizations were performed 3 times with once every 7 days to activate the immune response in the body. B16-OVA tumor was injected into the tail vein to establish a tumor metastasis model. The mice were sacrificed 21 days after the tumor injection, and the lung tissues were taken out.

With `O=P1(N(CCCl)CCCl)NCCCO1` (stereo not shown) [CTX, cyclophosphamide monohydrate] the tumor size (melanoma B16-F10) was 393.9 mm^3.

In the case of CTB, the “inflammation in the lungs” value (influenza virus) is reported as “a small amount of inflammation in lung” and the “weight of the mice after influenza infection” value (influenza virus) is reported as “recovered slightly after a slight weight loss”.

In the case of `[Cl][Mn][Cl]` [MnCl2], the “ability to activate inflammatory factors (caspase 1 and IL-1β cleavage, IL-1β and IL-18)” value [1] is reported as “significantly stronger than that of aluminum adjuvant”, the “ability to activate inflammatory factors in NLRP3 knockout cells” value [1] is reported as “significantly lowered” and the “ability to activate inflammatory factors, MnCl2 compared with manganese colloid” value (IL-1β) is reported as “have the same ability to activate inflammatory factors”. For the same molecule, the “retention at the injection site (manganese content in muscle)” value [2] was “quickly metabolized” and the “expression of type I interferon (ISG54, Viperin, total type I interferon in supernatant)” value [3] was “can activate the expression of type I interferon”.

B1: OVA: ovalbumin antigen (InvivoGen, #vac-pova), given without adjuvant (protein, UniProt P01012 2-386, looked up)
Ovalbumin: GSIGAASMEFCFDVFKELKVHHANENIFYCPIAIMSALAMVYLGAKDSTRTQINKVVRFDKLPGFGDSIEAQCGTSVNVHSSLRDILNQITKPNDVYSFSLASRLYAEERYPILPEYLQCVKELYRGGLEPINFQTAADQARELINSWVESQTNGIIRNVLQPSSVDSQTAMVLVNAIVFKGLWEKAFKDEDTQAMPFRVTEQESKPVQMMYQIGLFRVASMASEKMKILELPFASGTMSMLVLLPDEVSGLEQLESIINFEKLTEWTSSNVMEERKIKVYLPRMKMEEKYNLTSVLMAMGITDVFSSSANLSGISSAESLKISQAVHAAHAEINEAGREVVGSAEAGVDAASVSEEFRADHPFLFCIKHIATNAVLFFGRCVSP
With B1 the average tumor size (B16/OVA melanoma cells) was 925.5 mm^3 and the “melanomas on the lungs” value (B16-OVA tumor) was “a certain number of melanomas”.

— patent US12324814B2, “Manganese composition for enhancing immunity” (PEKING UNIVERSITY, priority 2019, dated 2025)
